According to EP1247803A2, “Indolinone compounds suitable for modulation of protein kinases” (Sugen, Inc., priority 1996, dated 1998):

Experiments:
EGFR = biological target: T1, EGFR (Homo sapiens, UniProt P00533); test: EGFR ELISA assay (in vitro kinase activity, EGFR captured from A431 cell lysate); type: biochemical; parameters: concentration or dose not given beside the values
T1 construct: Add 7 ug A431 cell lysate per well (EGFR source); endogenous in cells; host or cells: A431
How it was run: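 EGFR from A431 lysate was captured on plates coated with anti-EGFR antibody. Compounds were added 30 min before a 5 min phosphorylation with 3 µM ATP/5 mM MnCl2, which was stopped with 20 mM EDTA. Phosphotyrosine was detected with rabbit anti-phosphotyrosine, then a peroxidase-conjugated secondary and ABTS/H2O2, read at 410 nm.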

MET = MET biochemical kinase assay; parameters: species or system human; concentration or dose not given beside the values
How it was run: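 Immunocaptured MET autophosphorylation, read colorimetrically (TMB) via HRP anti-phosphotyrosine antibody. Kinase reaction initiated with buffer containing ATP and divalent metals after compound addition to plate-bound receptor from lysates.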

T1 sequence (P00533 25-1210): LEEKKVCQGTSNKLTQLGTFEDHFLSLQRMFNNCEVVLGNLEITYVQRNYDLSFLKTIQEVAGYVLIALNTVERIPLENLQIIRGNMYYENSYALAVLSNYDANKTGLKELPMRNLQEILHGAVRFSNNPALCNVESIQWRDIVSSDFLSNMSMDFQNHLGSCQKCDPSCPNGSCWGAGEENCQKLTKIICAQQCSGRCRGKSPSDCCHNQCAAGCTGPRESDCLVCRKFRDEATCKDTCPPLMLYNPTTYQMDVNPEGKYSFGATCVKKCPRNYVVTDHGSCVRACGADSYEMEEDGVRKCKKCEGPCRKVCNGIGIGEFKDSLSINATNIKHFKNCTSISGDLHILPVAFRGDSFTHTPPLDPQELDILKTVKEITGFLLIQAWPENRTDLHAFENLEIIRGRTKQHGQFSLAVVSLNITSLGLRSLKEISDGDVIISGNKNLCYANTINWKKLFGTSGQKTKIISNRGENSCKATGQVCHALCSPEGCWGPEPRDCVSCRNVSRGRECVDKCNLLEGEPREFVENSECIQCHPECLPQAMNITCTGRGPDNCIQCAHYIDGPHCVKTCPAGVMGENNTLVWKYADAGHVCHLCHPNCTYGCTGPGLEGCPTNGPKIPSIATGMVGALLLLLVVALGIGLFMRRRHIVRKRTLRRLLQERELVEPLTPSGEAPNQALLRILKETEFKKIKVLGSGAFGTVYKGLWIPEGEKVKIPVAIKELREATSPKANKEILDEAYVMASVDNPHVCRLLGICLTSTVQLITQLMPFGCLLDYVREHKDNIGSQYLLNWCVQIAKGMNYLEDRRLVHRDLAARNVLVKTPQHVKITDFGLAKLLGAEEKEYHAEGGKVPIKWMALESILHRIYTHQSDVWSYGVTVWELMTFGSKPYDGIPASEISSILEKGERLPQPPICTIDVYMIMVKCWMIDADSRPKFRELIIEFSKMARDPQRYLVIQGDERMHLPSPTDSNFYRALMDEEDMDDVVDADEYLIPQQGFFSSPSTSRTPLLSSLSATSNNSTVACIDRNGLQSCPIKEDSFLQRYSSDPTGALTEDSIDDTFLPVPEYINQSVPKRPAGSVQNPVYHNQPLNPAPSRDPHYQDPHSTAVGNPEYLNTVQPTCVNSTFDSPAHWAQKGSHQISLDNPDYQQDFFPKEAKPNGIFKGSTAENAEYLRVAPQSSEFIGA

Structure (SMILES) | Biochem EGFR %Inhibition (EGFR) [%] | Met Kinase % Inhibition (MET) [%]
CCCCN(CCCC)c1ccc(C=C2C(=O)Nc3c(Br)cc(Br)cc32)cc1 [10722/A10] | -4.2 | 79.0
O=C1Nc2ccc(I)cc2C1=Cc1c(O)cc(O)cc1O [10722/B03] | 19.6 | 40.1
CNS(=O)(=O)c1ccc2c(c1)C(=Cc1ccc[nH]1)C(=O)N2 [10717/D09] | 6.8 | 29.1
CC(C)(C)c1cc(C=C2C(=O)Nc3ccc(S(=O)(=O)N4CCOCC4)cc32)cc(C(C)(C)C)c1O [10721/F11] | 95.9 | 78.2
O=C1Nc2c(Br)cc(Br)cc2C1=Cc1ccc(F)cc1F [10722/A06] | 28.4 | 71.6
CC(C)(C)c1cc(C=C2C(=O)Nc3ccc(S(=O)(=O)Nc4ccc(C(F)(F)F)cc4)cc32)cc(C(C)(C)C)c1O [10721/E11] | 32.1 | 31.3
O=C1Nc2c(Br)cc(Br)cc2C1=Cc1ccc(C(=O)O)cc1 [10722/A05] | 22.4 | 90.5
CCCCN(CCCC)c1ccc(C=C2C(=O)Nc3ccc(S(=O)(=O)NC)cc32)cc1 [10722/D10] | -0.6 | 40.5
CNS(=O)(=O)c1ccc2c(c1)C(=Cc1csc([N+](=O)[O-])c1)C(=O)N2 [10722/D09] | -17.2 | 52.2
Cc1cc(C=C2C(=O)Nc3ccc(S(=O)(=O)N4CCOCC4)cc32)sc1C [10721/F04] | 0.0 | 26.0
CNS(=O)(=O)c1ccc2c(c1)C(=Cc1cccs1)C(=O)N2 [10717/D03] | -1.4 | 11.1
Cc1cc(C=C2C(=O)Nc3ccc(S(=O)(=O)Nc4ccc(C(F)(F)F)cc4)cc32)sc1C [10721/E04] | 48.5 | 87.3
CNS(=O)(=O)c1ccc2c(c1)C(=Cc1c(O)cc(O)cc1O)C(=O)N2 [10722/D03] | 31.0 | 52.8
O=C1Nc2ccc(S(=O)(=O)Nc3ccc(C(F)(F)F)cc3)cc2C1=Cc1cc2c([nH]1)CCCC2 [10721/E05] | 61.3 | 69.9
CNS(=O)(=O)c1ccc2c(c1)C(=Cc1ccc(C(F)(F)F)cc1)C(=O)N2 [10722/D11] | -10.1 | 41.0
O=C1Nc2ccc(S(=O)(=O)Nc3ccc(C(F)(F)F)cc3)cc2C1=Cc1ccc(F)cc1F [10722/E06] | 7.6 | 71.6
CC(C)(C)c1cc(C=C2C(=O)Nc3ccc(S(=O)(=O)N4CCOCC4)cc32)ccc1O [10721/F09] | 7.0 | 52.5
Cn1cc(Cl)c(C=C2C(=O)Nc3ccc(S(=O)(=O)N4CCOCC4)cc32)n1 [10721/F03] | 7.0 | 40.6
CC(C)(C)c1cc(C=C2C(=O)Nc3ccc(S(=O)(=O)Nc4ccc(C(F)(F)F)cc4)cc32)ccc1O [10721/E09] | 42.5 | 0.7
CNS(=O)(=O)c1ccc2c(c1)C(=Cc1cccn1C)C(=O)N2 [10717/D04] | 4.9 | 21.0
O=C1Nc2ccc(I)cc2C1=Cc1ccc(C(F)(F)F)cc1 [10722/B11] | -15.5 | 83.0
CCOc1ccccc1C=C1C(=O)Nc2ccc(S(=O)(=O)NC)cc21 [10717/D02] | 10.1 | 28.6
CC(C)(C)c1cc(C=C2C(=O)Nc3ccc(CCCl)cc32)cc(Br)c1O [10721/G10] | 2.1 | 12.0
Cc1cc(C=C2C(=O)Nc3c(Br)cc(Br)cc32)cc(C)c1O [10722/A07] | 29.9 | 64.1
CC(C)(C)c1cc(C=C2C(=O)Nc3ccc(I)cc32)cc(Cl)c1O [10722/B08] | 0.5 | 72.0

Structure (SMILES) | Biochem EGFR %Inhibition (EGFR) [%] | Met Kinase % Inhibition (MET) [%]
O=C1Nc2ccc(S(=O)(=O)Nc3ccc(C(F)(F)F)cc3)cc2C1=Cc1ccc([N+](=O)[O-])s1 [10722/E04] | 1.4 | 52.6
O=C1Nc2ccc(CCCl)cc2C1=Cc1cc2c([nH]1)CCCC2 [10721/G05] | 7.7 | 8.6
Cn1c(C=C2C(=O)Nc3ccc(S(=O)(=O)Nc4ccc(C(F)(F)F)cc4)cc32)nc2ccccc21 [10721/E02] | -9.5 | 38.8
CNS(=O)(=O)c1ccc2c(c1)C(=Cc1cc(C)c(O)c(C)c1)C(=O)N2 [10722/D07] | -2.8 | 42.6
O=C1Nc2ccc(I)cc2C1=Cc1ccc([N+](=O)[O-])s1 [10722/B04] | 10.6 | 53.4
CC(C)(C)c1cc(C=C2C(=O)Nc3ccc(S(=O)(=O)Nc4ccc(C(F)(F)F)cc4)cc32)cc(Br)c1O [10721/E10] | 19.9 | 55.7
CC(C)(C)c1cc(C=C2C(=O)Nc3ccc(S(=O)(=O)Nc4ccc(C(F)(F)F)cc4)cc32)cc([N+](=O)[O-])c1O [10722/E02] | 22.2 | 71.1
O=C1Nc2ccc(S(=O)(=O)N3CCOCC3)cc2C1=Cc1cc2c([nH]1)CCCC2 [10721/F05] | 20.5 | 67.8
O=C1Nc2ccc(S(=O)(=O)Nc3ccc(C(F)(F)F)cc3)cc2C1=Cc1ccc(C(=O)O)cc1 [10722/E05] | -7.0 | 73.0
CNS(=O)(=O)c1ccc2c(c1)C(=Cc1cc(C(C)(C)C)c(O)c(C(C)(C)C)c1)C(=O)N2 [10721/D11] | 22.2 | 23.2
O=C1Nc2ccc(I)cc2C1=Cc1ccc(C(=O)O)cc1 [10722/B05] | 9.3 | 67.2
Cc1cc(C=C2C(=O)Nc3ccc(S(=O)(=O)Nc4ccc(C(F)(F)F)cc4)cc32)cc(C)c1O [10722/E07] | 28.7 | 71.6
CC(C)(C)c1cc(C=C2C(=O)Nc3ccc(CCCl)cc32)cc(C(C)(C)C)c1O [10721/G11] | 0.4 | -0.0
O=C1Nc2c(Br)cc(Br)cc2C1=Cc1cccs1 [10717/A03] | 1.0 | 54.6
O=C1Nc2ccc(I)cc2C1=Cc1ccc(F)cc1F [10722/B06] | -4.9 | 72.6
Cc1cc(C=C2C(=O)Nc3ccc(CCCl)cc32)sc1C [10721/G04] | 64.6 | 90.3
O=C1Nc2c(Br)cc(Br)cc2C1=Cc1ccc(C(F)(F)F)cc1 [10722/A11] | -0.1 | 68.6
O=C1Nc2c(Br)cc(Br)cc2C1=Cc1c(O)cc(O)cc1O [10722/A03] | 0.8 | 90.3
O=C1Nc2c(Br)cc(Br)cc2C1=Cc1csc([N+](=O)[O-])c1 [10722/A09] | 16.8 | 86.5
CNS(=O)(=O)c1ccc2c(c1)C(=Cc1ccc(C)s1)C(=O)N2 [10717/D07] | -4.5 | 16.8
CC(C)(C)c1cc(C=C2C(=O)Nc3ccc(CCCl)cc32)ccc1O [10721/G09] | 14.9 | 5.1
O=C1Nc2ccc(S(=O)(=O)Nc3ccc(C(F)(F)F)cc3)cc2C1=Cc1c(O)cc(O)cc1O [10722/E03] | 33.0 | 88.4
CNS(=O)(=O)c1ccc2c(c1)C(=Cc1cc(Cl)c(O)c(C(C)(C)C)c1)C(=O)N2 [10722/D08] | -2.6 | 60.5
O=C1Nc2ccc(S(=O)(=O)Nc3ccc(C(F)(F)F)cc3)cc2C1=Cc1ccc(C(F)(F)F)cc1 [10722/E11] | 4.2 | 84.0
